Experimental data as given in ChEMBL document CHEMBL1614632, “Trend analysis of a database of intravenous pharmacokinetic parameters in humans for 670 drug compounds” (Drug Metab Dispos, 2008).
Numbered stars: 1 amine (or outer) side, 2 acyl side, 3 side chain; on linkers, the order of the positions; unused ones are H or OH. Bridge positions count the residues as written; N and C are the ends. Square brackets hold non-standard residues; d marks the D form. Peptide text beside a SMILES is read from it. * marks the point of attachment. pTerphenylCO(4''-OnC5H11) = CCCCCOc1ccc(-c2ccc(-c3ccc(C(=O)*)cc3)cc2)cc1; Orn(4R-OH,5R-OH) = O=C([C@H](C[C@@H](O)[C@@H](O)N[*:3])N[*:1])[*:2]; hTyr(3S-OH,4S-OH) = N[C@H](C(=O)O)[C@H](O)[C@@H](O)c1ccc(O)cc1; Pro(3S-OH,4S-Me) = C[C@H]1CN[C@H](C(=O)O)[C@H]1O; Hyp = O=C(O)[C@@H]1C[C@@H](O)CN1

What was measured:
clinical [1] = conditions: human, in vivo, iv
clinical [2] = conditions: human, in vivo, iv, CL
clinical [3] = conditions: human, in vivo, iv, Vdss
clinical [4] = conditions: human, in vivo, iv, t1/2

| Structure (SMILES) | MRT (clinical [1]) | clearance (clinical [2]) | Vd (clinical [3]) | half-life (clinical [4]) |
| --- | --- | --- | --- | --- |
| COc1c(N2CCNC(C)C2)c(F)cc2c(=O)c(C(=O)O)cn(C3CC3)c12 (centres undefined) [GATIFLOXACIN] | 11 h | 2.8 mL/min/kg | 1.7 L/kg | 10 h |
| CN1[C@@H]2CC[C@H]1C[C@@H](OC(=O)c1c[nH]c3ccccc13)C2 [TROPISETRON] | 6.3 h | 26 mL/min/kg | 9.7 L/kg | 5.6 h |
| O=C(O)C1N=C(c2ccccc2)c2cc(Cl)ccc2NC1=O (centres undefined) [CLORAZEPIC ACID] | 3 h | 1.1 mL/min/kg | 0.2 L/kg | 2.4 h |
| CCO[C@@H](Cc1ccc(OCCc2ccc(OS(C)(=O)=O)cc2)cc1)C(=O)O [TESAGLITAZAR] | 56 h | 0.039 mL/min/kg | 0.13 L/kg | 45 h |
| CCC1(c2ccccc2)C(=O)NC(=O)NC1=O [PHENOBARBITAL] | 140 h | 0.063 mL/min/kg | 0.54 L/kg | 99 h |
| COc1ccccc1N1CCN(CCCNc2cc(=O)n(C)c(=O)n2C)CC1 | 4 h | 3.1 mL/min/kg | 0.75 L/kg | 3.5 h |
| C=CC[N+]12CC[C@@]34c5ccccc5N5/C=C6/[C@H]7C[C@H]8[C@@]9(CC[N@@+]8(CC=C)C/C7=C/CO)c7ccccc7N(/C=C(/[C@@H](C[C@@H]31)/C(=C\CO)C2)[C@H]54)[C@@H]69 (some centres undefined) | 4.1 h | 1.3 mL/min/kg | 0.32 L/kg | 3.6 h |
| C[C@H](N[C@@H](CCc1ccccc1)C(=O)O)C(=O)N1CCC[C@H]1C(=O)O [ENALAPRILAT ANHYDROUS] | 4 h | 1.6 mL/min/kg | 0.38 L/kg | 39 h |
| O=C(NCCN1CCOCC1)c1ccc(Cl)cc1 [MOCLOBEMIDE] | 1.8 h | 10 mL/min/kg | 1.1 L/kg | 1.5 h |
| C[C@H](N[C@@H](CCc1ccccc1)C(=O)O)C(=O)N1Cc2ccccc2C[C@H]1C(=O)O | 2.3 h | 0.93 mL/min/kg | 0.13 L/kg | 2.3 h |
| C[C@H]1O[C@@H](n2cc(F)c(=O)[nH]c2=O)[C@H](O)[C@@H]1O [DOXIFLURIDINE] | 0.46 h | 11 mL/min/kg | 0.28 L/kg | 0.35 h |
| COc1ccc2[nH]c([S+]([O-])Cc3ncc(C)c(OC)c3C)nc2c1 (centres undefined) [OMEPRAZOLE] | 0.48 h | 8.4 mL/min/kg | 0.24 L/kg | 0.58 h |
| CCCNC(=O)NS(=O)(=O)c1ccc(Cl)cc1 [CHLORPROPAMIDE] | 70 h | 0.045 mL/min/kg | 0.19 L/kg | 46 h |
| CCCCCNC(=N)N/N=C/c1c[nH]c2ccc(OC)cc12 [TEGASEROD] | 4.9 h | 18 mL/min/kg | 5.3 L/kg | 11 h |
| CN/C(=N/CCSCc1nc[nH]c1C)NC#N [CIMETIDINE] | 2.5 h | 8.1 mL/min/kg | 1.2 L/kg | 2.2 h |
| CNCCC=C1c2ccccc2CCc2ccccc21 [NORTRIPTYLINE] | 37 h | 10 mL/min/kg | 22 L/kg | 30 h |
| COc1nc(C)nc(Cl)c1N=C1NCCN1 [MOXONIDINE] | 2.7 h | 11 mL/min/kg | 1.8 L/kg | 2.2 h |
| Nc1ncn([C@H]2C[C@H](O)[C@@H](CO)O2)c(=O)n1 [DECITABINE] | 0.59 h | 130 mL/min/kg | 4.6 L/kg | 0.58 h |

| Structure (SMILES) | MRT (clinical [1]) | clearance (clinical [2]) | Vd (clinical [3]) | half-life (clinical [4]) |
| --- | --- | --- | --- | --- |
| C#CCN(C)[C@H](C)Cc1ccccc1 [SELEGILINE] | 1.6 h | 20 mL/min/kg | 1.9 L/kg | 1.3 h |
| CN(C(=O)c1c(O)c2ccccc2n(C)c1=O)c1ccccc1 [ROQUINIMEX] | 43 h | 0.082 mL/min/kg | 0.21 L/kg | 31 h |
| Cc1ccnc2c1NC(=O)c1cccnc1N2C1CC1 [NEVIRAPINE] | 81 h | 0.3 mL/min/kg | 1.3 L/kg | 53 h |
| CN[C@@H]1CCc2[nH]c3ccc(C(N)=O)cc3c2C1 [FROVATRIPTAN] | 22 h | 2.5 mL/min/kg | 3.6 L/kg | 24 h |
| CCCCCN(CCCOC)C(=O)C(CCC(=O)O)NC(=O)c1ccc(Cl)c(Cl)c1 (centres undefined) [LOXIGLUMIDE] | 4 h | 1 mL/min/kg | 0.24 L/kg | 5.2 h |
| COc1ccc([C@]2(C#N)CC[C@@H](C(=O)O)CC2)cc1OC1CCCC1 [CILOMILAST] | 8.5 h | 0.5 mL/min/kg | 0.23 L/kg | 7.9 h |
| CCC(=O)C1(c2cccc(O)c2)CCN(C)CC1 [KETOBEMIDONE] | 0.87 h | 9.2 mL/min/kg | 0.48 L/kg | 2.3 h |
| CNC(=C[N+](=O)[O-])NCCSCc1csc(CN(C)C)n1 [NIZATIDINE] | 1.7 h | 9.8 mL/min/kg | 1 L/kg | 1.5 h |
| CCN(CC)CCNC(=O)c1cc(Cl)c(N)cc1OC [METOCLOPRAMIDE] | 9.4 h | 5.7 mL/min/kg | 3.2 L/kg | 7.2 h |
| Cc1cc(NC(=O)C2=C(O)c3ccccc3S(=O)(=O)N2C)no1 [ISOXICAM] | 44 h | 0.07 mL/min/kg | 0.19 L/kg | 33 h |
| CCOc1ccccc1OCC1CNCCO1 (centres undefined) [VILOXAZINE] | 5.8 h | 2.1 mL/min/kg | 0.73 L/kg | 4.1 h |
| CC(C)[C@@H](CC[C@@H](C)[C@H]1CC[C@H]2[C@@H]3[C@H](O)C[C@H]4C[C@@H](NCCCNCCCCN)CC[C@]4(C)[C@H]3CC[C@]12C)OS(=O)(=O)O [SQUALAMINE] | 3.2 h | 1.2 mL/min/kg | 0.23 L/kg | 9.5 h |
| O=C(CCCN1CCC(n2c(O)nc3ccccc32)CC1)c1ccc(F)cc1 [BENPERIDOL] | 7.5 h | 8.3 mL/min/kg | 3.8 L/kg | 5.8 h |
| N/N=c1/cc2c(n[nH]1)CCN(C(=O)c1ccccc1)C2 [ENDRALAZINE] | 2.7 h | 13 mL/min/kg | 2.2 L/kg | 5.6 h |
| CCCCCOc1ccc(-c2ccc(-c3ccc(C(=O)N[C@H]4C[C@@H](O)[C@@H](O)NC(=O)[C@@H]5[C@@H](O)[C@@H](C)CN5C(=O)[C@H]([C@@H](C)O)NC(=O)[C@H]([C@H](O)[C@@H](O)c5ccc(O)cc5)NC(=O)[C@@H]5C[C@@H](O)CN5C(=O)[C@H]([C@@H](C)O)NC4=O)cc3)cc2)cc1 [ANIDULAFUNGIN] ({pTerphenylCO(4''-OnC5H11)}-[Orn(4R-OH,5R-OH)]T[Hyp][hTyr(3S-OH,4S-OH)]T[Pro(3S-OH,4S-Me)]; lactam 1-C) | 45 h | 0.21 mL/min/kg | 0.57 L/kg | 40 h |
| OC(CCN1CCCC1)(c1ccccc1)C1CCCCC1 (centres undefined) [PROCYCLIDINE] | 14 h | 0.86 mL/min/kg | 0.74 L/kg | 12 h |
| COc1cccc2c1C(=O)c1c(O)c3c(c(O)c1C2=O)C[C@@](O)(C(=O)CO)C[C@@H]3O[C@H]1C[C@H](N)[C@H](O)[C@H](C)O1 [DOXORUBICIN] | 24 h | 15 mL/min/kg | 22 L/kg | 32 h |
| C[C@@](O)(/C=C/[C@H]1CC=CC(=O)O1)[C@@H](C[C@@H](O)\C=C/C=C\C=C\CO)OP(=O)(O)O [FOSTRIECIN] | 1.2 h | 1.2 mL/min/kg | 0.086 L/kg | 1.5 h |
